Consider one compound from patent publication US20250319133A1, “METHODS FOR IMPROVING BONE HEALTH WITH BOVINE MILK EXOSOME-ENRICHED PRODUCTS AND VITAMIN K2” (ABBOTT LABORATORIES, priority 2022, published 2025).

The subject of the assay is MC3T3-E1 cells. In words: Alizarin Red S (ARS) extracellular mineralization assay, calcium deposits. In kind it is cell-based, murine. The settings on record: 12 days in differentiation medium, 1 μM vitamin K2 and/or 15 μg/ml bovine milk exosomes. The protocol: Alizarin Red S (ARS) assay is an anthraquinone dye used to visualize and evaluate extracellular calcium deposits in cell culture. In embodiments of the invention, mineralization activity of differentiated osteoblasts are evaluated through ARS assay. To begin the assay, MC3T3-E1 pre-osteoblast cells were grown in MEM (minimum essential medium) culture medium supplemented with 10% v/v FBS (fetal bovine serum), […], 100 units/ml penicillin and 0.1 mg/ml streptomycin in a 5% CO2 and an atmosphere with 95% humidity. For osteogenic differentiation, these pre-osteoblast cells were seeded in 24-well plates at a density of 3×10^4 cells/well in complete medium for 1 day. The medium was then replaced by MEM containing 10% v/v FBS, […], 100 units/ml penicillin, 0.1 mg/ml streptomycin, […], and 50 μg/ml L-ascorbic acid. Specifically, three groups of MC3T3-E1 pre-osteoblast cells were treated. Group 1 was treated with 1 μM vitamin K2. Group 2 was treated with 15 μg/ml bovine milk exosomes. Group 3 was treated with a combination of 1 μM vitamin K2 and 15 μg/ml bovine milk exosomes. Group 4 was included as an untreated control group. In addition to analyzing Runx2 and LC3 molecular markers in Example 2, cell Groups 1-3 as described in Example 2 were treated in the presence of a differentiation medium for 12 days. […]

As to `CC(C)=CCC/C(C)=C/CC/C(C)=C/CC/C(C)=C/CC1=C(C)C(=O)c2ccccc2C1=O` [vitamin K2], the “calcium deposits (extracellular matrix mineralization), ARS micrographs” value is on record as “abundant calcium deposits”.
